Experiments:
[1] = system: IPF patients; conditions: cited from earlier work
[2] = system: Idiopathic Pulmonary Fibrosis patients; assay: Response to treatment with only doxycycline (case reports); assay type: in vivo, human
From the text: Example 1 Response to Treatment with Only Doxycycline […]

[3] = system: suspected IPF patients; conditions: human, in vivo
[4] = system: patients (periodontal disease, malaria prevention, Pulmonary Capillary Hemangiomatosis, Q fever endocarditis); conditions: in vivo; cited from earlier work
[5] = Case 2, 01 Oct. 2007 (earlier date, baseline)
[6] = Case 2, 09 Jan. 2008, on doxycycline 100 mg twice a day for over 3 months
[7] = Case 4, 10 Jan. 2004 (earlier date, baseline)
[8] = Case 4, 20 Aug. 2004, after doxycycline for over 7 months

CC(C)(S)[C@@H](N)C(=O)O [D-penicillamine]
Benefit of antifibrotic therapy in IPF ([1]; in vivo): did not show any significant benefit

C[C@H]1c2cccc(O)c2C(=O)C2=C(O)[C@]3(O)C(=O)C(C(N)=O)=C(O)[C@@H](N(C)C)[C@@H]3[C@@H](O)[C@@H]21 [doxycycline]
6 minute Walking distance [2, 5]: 980 ft | FVC [2, 5]: 1.66 L | 6 minute Walking distance [2, 6]: 1155 ft | FVC [2, 6]: 1.92 L | FEV1 [2, 7]: 1.15 | FVC [2, 7]: 2.12 | TLCO(%) [2, 7]: 49.4% | TLCO/VA [2, 7]: 102.6 | VA [2, 7]: 3.76 | FVC ([2]; Case 4, 20 Aug. 2004, after doxycycline 100 mg twice a day for over 7 months): 2.45 | FEV1 [2, 8]: 1.51 | TLCO(%) [2, 8]: 58.9% | TLCO/VA [2, 8]: 127.9 | VA [2, 8]: 3.59 | Intolerance or adverse reaction [3]: no intolerance or adverse reaction | Tolerability [3]: well tolerated | Harm in long-term use (ACMP conclusion) [4]: no evidence of harm | Tolerability in Pulmonary Capillary Hemangiomatosis with atypical endotheliomatosis [4]: without any problem

doxycycline hyclate [doxycycline hyclate (Periostat)]
Safety in clinical studies [4]: safe

COc1cc2c(c(OC)c1OC)-c1ccc(OC)c(=O)cc1[C@@H](NC(C)=O)CC2 [colchicines]
Benefit of antifibrotic therapy in IPF ([1]; in vivo): did not show any significant benefit

Cc1ccc(=O)n(-c2ccccc2)c1 [Pirfinidone]
Tolerability ([1]; in vivo): well tolerated

B1: Interferon gamma-1b: a down regulator to TGFβ (protein, UniProt P01579 24-161, looked up)
Interferon gamma: QDPYVKEAENLKKYFNAGHSDVADNGTLFLGILKNWKEESDRKIMQSQIVSFYFKLFKNFKDDQSIQKSVETIKEDMNVKFFNSNKKKRDDFEKLTNYSVTDLNVQRKAIHELIQVMAELSPAAKTGKRKRSQMLFRG
Lung volume, gas exchange and symptoms ([1]; one year study): increase | Efficacy in IPF ([1]; recent double blind controlled trial): ruled out its efficacy

From patent publication US20100130452A1, “Use of Doxycycline in the Treatment of Idiopathic Pulmonary Fibrosis” (NATIONAL RESEARCH DEVELOPMENT CORPORATION, priority 2007, published 2010)
